Columns and labels:
Experiment in all cases: drug sensitivity score (DSS3, normalised partial AUC of % inhibition dose-response) (DSS (score)); higher = more sensitive (stronger inhibition of viability); extreme values may be limits of the assay
[1] = tested on: FMOC03 (patient-derived mucinous ovarian cancer cells); conditions: 72 h; library: FO5A; assay format: 2D, 384-well, CellTiter-Glo
Outline: (§1)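 Early-passage (under 10) patient-derived ovarian cancer cells were dispensed onto 384-well flat clear-bottom plates pre-plated with compounds at five concentrations spanning a 10,000-fold range, then incubated 72 h at 37 °C, 5% CO2. Viability was read with CellTiter-Glo, and the data were processed in Breeze. The drug sensitivity score is a partial area under the percent-inhibition dose-response curve divided by the log of the upper asymptote, with higher values meaning greater sensitivity.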

[2] = tested on: FMOC25_2 (patient-derived low-grade serous ovarian cancer cells); conditions: 72 h; library: FO5A; assay format: 2D, 384-well, CellTiter-Glo
Outline: as §1

[3] = tested on: FMOC22 (patient-derived mucinous ovarian cancer cells); conditions: 72 h; library: FO5A; assay format: 2D, 384-well, CellTiter-Glo
Outline: as §1

[4] = tested on: FMOC24 (patient-derived high-grade serous ovarian cancer cells); conditions: 72 h; library: FO5A; assay format: 2D, 384-well, CellTiter-Glo
Outline: as §1

[5] = tested on: FMOC14 (patient-derived high-grade serous ovarian cancer cells); conditions: 72 h; library: FO5A; assay format: 2D, 384-well, CellTiter-Glo
Outline: as §1

[6] = tested on: FMOC02_2 (patient-derived low-grade serous ovarian cancer cells); conditions: 72 h; library: FO5A; assay format: 2D, 384-well, CellTiter-Glo
Outline: as §1

[7] = tested on: FMOC25_1 (patient-derived low-grade serous ovarian cancer cells); conditions: 72 h; library: FO4B; assay format: 2D, 384-well, CellTiter-Glo
Outline: as §1

[8] = tested on: FMOC06 (patient-derived mucinous ovarian cancer cells); conditions: 72 h; library: FO5A; assay format: 2D, 384-well, CellTiter-Glo
Outline: as §1

[9] = tested on: FMOC02_3 (patient-derived low-grade serous ovarian cancer cells); conditions: 72 h; library: FO5A; assay format: 2D, 384-well, CellTiter-Glo
Outline: as §1

[10] = tested on: FMOC09 (patient-derived high-grade serous ovarian cancer cells); conditions: 72 h; library: FO5A; assay format: 2D, 384-well, CellTiter-Glo
Outline: as §1

SMILES	drug sensitivity score [1]	drug sensitivity score [2]	drug sensitivity score [3]	drug sensitivity score [4]	drug sensitivity score [5]	drug sensitivity score [6]	drug sensitivity score [7]	drug sensitivity score [8]	drug sensitivity score [9]	drug sensitivity score [10]
CC(C)(C)C[C@@H]1N[C@@H](C(=O)N[C@H]2CC[C@H](O)CC2)[C@H](c2cccc(Cl)c2F)[C@]12C(=O)Nc1cc(Cl)ccc12	3.1	8.4	3.5	3.4	1.6	10.3	9.9	3.3	17.9	1.6
CC(C)Oc1ccc(C(=O)N[C@H](CNC(=O)CN(C)C)Cc2ccc(-c3cn4cccc([C@H](C)O)c4n3)cc2)cc1Cl	5.5	8.8	5.7	4.8	3.5	3.8	3.3	2.7	11.9	7.3
C[C@@]1(C(=O)Nc2ccc(F)nc2)CCCN1c1nc(Nc2cc(C3CC3)n[nH]2)c2cccn2n1	7	14.6	9.5	2.75	2.2	14.3	9.2	14.7	18.9	14.7
Cc1nn(C)c(COc2ccc(N3CCN(S(=O)(=O)N(C)C)CC3)cc2)c1-c1cccc2c(CCCOc3cccc4ccccc34)c(C(=O)O)n(CCN3CCOCC3)c12	5.9	4.7	8.2	6.7	7.6	6	5.6	7	7.5	5.9
Cn1cc(C2=Nc3cc(NC(=O)C(N)C4CCCCC4)cc4c3C2=CNNC4=O)cn1 (stereo not given)	4.3	10.9	8.3	10.1	6.8	7.3	11.7	3	9.9	7.6
COc1ccc(C[C@H](NC(=O)[C@H](C)NC(=O)CN2CCOCC2)C(=O)N[C@@H](Cc2ccccc2)C(=O)C2(C)CO2)cc1 (stereo in doubt) [ONX-0914]	16.5	18.8	14.9	20.9	14.1	12.5	16.4	16.9	19.3	12.8
CC/C(=C(\c1ccc(O)cc1)c1ccc(OCCN(C)C)cc1)c1ccccc1 [4-hydroxytamoxifen]	6.1	3.2	5.7	7.3	6.1	6.8	2	7.3	6.4	5.1
Nc1ncnc2c1nc(N)n2[C@@H]1O[C@H](CO)[C@@H](O)[C@H]1O [8-amino-adenosine]	18.3	18.6	18.6	18.8	16	27.5	20.5	20.3	21.7	20.2
Nc1ncnc2c1nc(Cl)n2[C@@H]1O[C@H](CO)[C@@H](O)[C@H]1O [8-chloro-adenosine]	2.4	15.2	3.2	6	3.3	19.7	11.4	4.1	18.2	5.5
COc1ccc(S(=O)(=O)Nc2cccnc2Nc2ccc(O)cc2)cc1 [ABT-751]	7.4	6.8	6.8	1.8	1.3	9.4	5	7	9.5	7.3
CC(C)[C@@H](CS(=O)(=O)C(C)C)N1C(=O)[C@@](C)(CC(=O)O)C[C@H](c2cccc(Cl)c2)[C@H]1c1ccc(Cl)cc1 [AMG-232]	0	13.1	0.8	0	0	14.9	5.6	0	26	0
CC(C)[C@H](C(=O)Nc1ccc(C(=O)NO)cc1)c1ccccc1 [AR-42]	12.4	10.7	8.7	9.3	11.5	11	10.1	10.6	8.8	5.2
COc1cc(N2CCC(N3CCN(C)CC3)CC2)ccc1Nc1ncnc(Nc2ccccc2S(=O)(=O)C(C)C)n1 [ASP3026]	4	8.6	4	5.1	0.8	9.8	5.2	4.9	8.1	7.2
O=C(NC1CCNCC1)c1n[nH]cc1NC(=O)c1c(Cl)cccc1Cl [AT7519]	12.1	21.3	10	15.2	12.5	17.8	17.6	16.3	22.1	12.3
O=C(Nc1c[nH]nc1-c1nc2ccc(CN3CCOCC3)cc2[nH]1)NC1CC1 [AT9283]	3.4	5.1	0.5	4.7	1.8	4.1	0.1	2.8	9.3	5.7
CN[C@@H](C)C(=O)N[C@H]1CN(C(=O)CC(C)C)CC[C@H]2CC[C@@H](C(=O)NC(c3ccccc3)c3ccccc3)N2C1=O [AT-406]	1.5	5	0	24.9	5.4	0	1.5	8.8	0.3	0
CC[C@H](CC#N)OC(=O)N[C@@H](C)c1cccc(NC(=O)Nc2ccc(-c3cnco3)c(OC)c2)c1 [AVN944]	13.4	10.3	14.2	6.45	11	9.8	9.7	13.4	12.6	11.2

SMILES	drug sensitivity score [1]	drug sensitivity score [2]	drug sensitivity score [3]	drug sensitivity score [4]	drug sensitivity score [5]	drug sensitivity score [6]	drug sensitivity score [7]	drug sensitivity score [8]	drug sensitivity score [9]	drug sensitivity score [10]
NC(=O)Nc1cc(-c2cccc(F)c2)sc1C(=O)N[C@H]1CCCNC1 [AZD7762]	1.5	4.5	3.3	9.15	6.2	3.5	3.3	3.6	6.1	6.3
COc1ccc(-c2ccc3c(N4CCOC[C@@H]4C)nc(N4CCOC[C@@H]4C)nc3n2)cc1CO [AZD8055]	20.7	28.8	17.4	13.3	16.2	28.6	30.9	20.3	29.9	14.5
Cc1ncc(-c2ccnc(Nc3ccc(S(C)(=O)=O)cc3)n2)n1C(C)C [AZD-5438]	7.5	12.8	7	13.6	9.7	12.4	8.1	8.2	15.2	3.4
CN(C)Cc1c(C(=O)NCCOc2ccc(C(=O)NO)cc2)oc2ccccc12 [Abexinostat]	12.7	14.2	8.5	15.3	13.5	16.6	13.3	11.7	14	5.9
CN(C)C/C=C/C(=O)Nc1cc2c(Nc3ccc(F)c(Cl)c3)ncnc2cc1O[C@H]1CCOC1 [Afatinib]	17	16.9	0.3	2.75	7.7	17.5	10.4	4.3	18.2	14.4
COc1cccc2c1C(=O)c1c(O)c3c(c(O)c1C2=O)C[C@@](O)(/C(CO)=N/NC(=O)CCCCCN1C(=O)C=CC1=O)C[C@@H]3O[C@H]1C[C@H](N)[C@H](O)[C@H](C)O1 [Aldoxorubicin]	3.9	7.9	4.5	5.2	4.7	5	5.3	4.4	7.8	6.1
COc1cc(Nc2ncc3c(n2)-c2ccc(Cl)cc2C(c2c(F)cccc2OC)=NC3)ccc1C(=O)O [Alisertib]	4.7	2.3	2.2	1	0.7	4.8	0.9	1.3	5.8	2.3
CN1CC[C@H](c2c(O)cc(O)c3c(=O)cc(-c4ccccc4Cl)oc23)[C@H](O)C1 [Alvocidib]	17.9	19.6	12.8	18.7	15.3	21.3	19.1	17	22.4	10.7
COc1cc(NS(C)(=O)=O)ccc1Nc1c2ccccc2nc2ccccc12 [Amsacrine]	6	7.1	8.3	8.05	2.2	5.2	8.2	4.5	7	4.7
O=C1CN2Cc3c(ccc(Cl)c3Cl)N=C2N1 [Anagrelide]	0	0	0	0	0	0	0	0.7	0	18.7
CC(=O)OC[C@H]1O[C@@H]([S-])[C@H](OC(C)=O)[C@@H](OC(C)=O)[C@@H]1OC(C)=O.CCP(CC)CC.[Au+] [Auranofin]	1.3	3.8	3.1	1.1	5.2	0	0	4.1	1.8	3.5
Nc1ncn([C@@H]2O[C@H](CO)[C@@H](O)[C@H]2O)c(=O)n1 [Azacitidine]	1.8	3	3.7	14.2	5	5.7	3.2	1.3	4.7	4.1
Cc1cc(-c2nc(-c3ccc(OC(F)(F)F)cc3)no2)nn1Cc1ccnc(N2CCN(C3CC3)CC2)c1 [BAY 87-2243]	6.4	5.3	6	0	3.1	0	2.2	0	0	0
CC[C@@H]1C(=O)N(C)c2cnc(Nc3ccc(C(=O)NC4CCN(C)CC4)cc3OC)nc2N1C1CCCC1 [BI 2536]	5.2	7.3	5.1	2.25	0.4	6.7	5.8	2.1	9.3	9.1
COc1c(C)cnc(Cn2cnc3c(Cl)nc(N)nc32)c1C [BIIB021]	17.2	15.5	11.7	10.7	13.2	16.9	13	10	21.1	13.7
O=C(Nc1cccc(Nc2ncc(Br)c(NCCc3cnc[nH]3)n2)c1)N1CCCC1 [BX-912]	2.4	7.6	2.4	4.65	0.5	5	6.2	4.4	7.6	2
O=C(/C=C/c1cccc(S(=O)(=O)Nc2ccccc2)c1)NO [Belinostat]	13.6	10.5	9.9	11.4	16	12.3	10.8	11.9	10.3	6.4

From the supplement of paper PMC9938120
